Key:
Assay type in all cases: in vivo, Lewis rats
[1] = Analysis of body weights in AIA model; details: for Body weight (g) 9th day / Body weight (g) 13th day / Body weight (g) 16th day: Mean ± SD; for Body weight (g) 8th day / Body weight (g) 11th day / Body weight (g) 15th day / Body weight (g) 18th day: Table 19 study, compound 10 mg/kg once per day P.O.
Experimental: (§1) Lewis rats (female, five-weeks old) were purchased from Central Lab Animal, Inc. and kept in a controlled environment with a temperature at 22±2° C., a humidity at 44-56% and a light/dark cycle of 12 hours, while being allowed to have a free access to standard diet and water for one week before an examination. Complete Freund's Adjuvant (Chondrex) containing 10 mg/mL of heat killed mycobacteria toxin was fully mixed together, after which […] thereof was taken and subcutaneously injected into each upper tail of the rats to induce arthritis therefrom.
(§2) To administer a drug of compound 374 (SM374) and evaluate an effect thereof, the rats were divided into 11 groups (9, 10 or 11 animals per group) one day before or nine days after inducing arthritis, after which each group was classified according to administered substances (vehicle, compound 374 (SM374) or methotrexate (MTX)) and administration routes (oral administration (P.O.) or intraperitoneal administration (I.P.)) as shown in a following table 13.
(§3) Also, in order to administer a drug of compounds 374, 413, 484, 530 and 652 (SM374, SM413, SM484, SM530 and SM652) and evaluate an effect thereof, the rats were divided into 13 groups (9 or 10 animals per group) eight days after inducing arthritis, and each group was classified according to administered substances (vehicle, SM374, SM413, SM484, SM530, SM652 and MTX) and administration routes (oral or intraperitoneal administration) as shown in a following table 14.
An analysis was made on the body weight of rats dosed with compound 374 (SM 374, once per day) or MIX (once per week or twice per week) from 9th day to 16th day after inducing AIA. […]

[2] = tested on: adjuvant-induced arthritis (AIA) model; assay: Clinical score analysis in adjuvant-induced arthritis (AIA) model; set-up: Clinical score 9th day / Clinical score 13th day / Clinical score 16th day / Clinical score 11th day / Clinical score 15th day / Clinical score 18th day: scale not given here; details: for Clinical score 9th day / Clinical score 13th day / Clinical score 16th day: Mean ± SD; for Clinical score 11th day / Clinical score 15th day / Clinical score 18th day: Mean ± SEM
Experimental: as §1, §2, §3
To identify the efficacy of the inventive composition on preventing or treating arthritis in an AIA model, an analysis was made on the clinical scores of rats dosed with a compound 374 (SM 374, once per day) or MTX (once per week or twice per week) from 9th day to 16th day after inducing arthritis.
Particularly, a degree of swelling, erythema, etc., in each joint of the rats were observed, after which clinical scores were calculated according to a scoring system described in a following table 15, such that the clinical scores on four joints were added up to obtain total scores for each rat (Vishwakarma et al., 2013).
To identify the efficacy of the inventive composition on preventing or treating arthritis in an AIA model, an analysis was made on the clinical scores of rats dosed with compounds 374, 413, 484, 530 and 652 (SM374, SM413, SM484, SM530 and SM652, once per day) or MIX (once per week) from 8th day to 18th day after inducing arthritis.

[3] = tested on: anti-CCP IgG; assay: Analysis of anti-CCP IgG in plasma in AIA model (QUANTA Lite CCP3 IgG ELISA); details: Mean ± SD
Experimental: as §1, §2
An effect of compound 374 (SM374) and MTX on preventing or treating arthritis according to administration thereof in combination was evaluated based on analysis of anti-CCP IgG, known as a diagnosis marker for rheumatoid arthritis.
Particularly, blood was collected from each jugular vein of rats dosed with compound 374 (SM374, once per day) and MTX (once or twice per week) from 9th day to 16th day after inducing AIA, after which plasma was isolated therefrom, such that anti-CCP IgG was measured with QUANTA Lite®CCP3 (cyclic citrullinated peptide 3) IgG ELISA kit (INOVA Diagnostics Inc., U.S., catalog no. 704535) according to a protocol offered by a manufacturer thereof, wherein the results thereof are shown in FIG. 5 and Table 20.

[4] = SM374 0.1 mg/kg once per day P.O.
[5] = SM374 0.5 mg/kg once per day P.O.
[6] = SM374 1 mg/kg once per day P.O.
[7] = SM374 10 mg/kg once per day P.O.
[8] = Table 17 study, compound 10 mg/kg once per day P.O., 18th day vs vehicle
[9] = Table 17 study, compound 10 mg/kg once per day P.O.

With `O=C(NO)c1ccc(CN(C(=O)N2CCOCC2)c2cccc(C(F)(F)F)c2)cc1` [SM374, N-(4-(hydroxycarbamoyl)benzyl)-N-(3-(trifluoromethyl)phenyl)morpholine-4-carboxamide] the “Body weight (g) 9th day” value [1, 4] was 157.3 ± 10.1 g, the “Body weight (g) 13th day” value [1, 4] was 151.3 ± 13.3 g and the “Body weight (g) 16th day” value [1, 4] was 144.2 ± 10.5 g. For the same compound, the “Body weight (g) 9th day” value [1, 5] was 157.3 ± 10.0 g, the “Body weight (g) 13th day” value [1, 5] was 153.1 ± 10.8 g and the “Body weight (g) 16th day” value [1, 5] was 148.6 ± 9.5 g. For the same compound, the “Body weight (g) 9th day” value [1, 6] was 157.3 ± 10.7 g, the “Body weight (g) 13th day” value [1, 6] was 156.9 ± 8.9 g and the “Body weight (g) 16th day” value [1, 6] was 151.6 ± 11.5 g. For the same compound, the “Body weight (g) 9th day” value [1, 7] was 157.3 ± 9.9 g, the “Body weight (g) 13th day” value [1, 7] was 151.6 ± 12.2 g and the “Body weight (g) 16th day” value [1, 7] was 147.6 ± 9.3 g. The “Body weight (g) 8th day” value [1] was 151.3 ± 2.1 g, the “Body weight (g) 11th day” value [1] was 153.9 ± 1.5 g and the “Body weight (g) 15th day” value [1] was 159.2 ± 1.5 g. For the same compound, the “Body weight (g) 18th day” value [1] was 157.6 ± 3.1 g, the “Rate of reduction in clinical scores (%)” value ([2]; SM374 0.1 mg/kg once per day P.O., 16th day vs vehicle) was 0% and the “Clinical score 9th day” value [2, 4] was 0.0 ± 0.0. For the same compound, the “Clinical score 13th day” value [2, 4] was 4.3 ± 2.9, the “Clinical score 16th day” value [2, 4] was 6.9 ± 3.0 and the “Rate of reduction in clinical scores (%)” value ([2]; SM374 0.5 mg/kg once per day P.O., 16th day vs vehicle) was 2.9%. For the same compound, the “Clinical score 9th day” value [2, 5] was 0.0 ± 0.0, the “Clinical score 13th day” value [2, 5] was 2.6 ± 2.3 and the “Clinical score 16th day” value [2, 5] was 6.7 ± 4.2. For the same compound, the “Rate of reduction in clinical scores (%)” value ([2]; SM374 1 mg/kg once per day P.O., 16th day vs vehicle) was 14.5%, the “Clinical score 9th day” value [2, 6] was 0.0 ± 0.0 and the “Clinical score 13th day” value [2, 6] was 2.7 ± 3.0. For the same compound, the “Clinical score 16th day” value [2, 6] was 5.9 ± 4.4, the “Rate of reduction in clinical scores (%)” value ([2]; SM374 10 mg/kg once per day P.O., 16th day vs vehicle) was −2.9% and the “Clinical score 9th day” value [2, 7] was 0.0 ± 0.0. The “Clinical score 13th day” value [2, 7] was 2.9 ± 2.9, the “Clinical score 16th day” value [2, 7] was 7.1 ± 3.1 and the “Rate of reduction in clinical scores (%)” value [2, 8] was 21.3%. The “Clinical score 11th day” value [2, 9] was 0.0 ± 0.0, the “Clinical score 15th day” value [2, 9] was 1.6 ± 0.7 and the “Clinical score 18th day” value [2, 9] was 4.8 ± 1.4. For the same compound, the “Anti-CCP IgG (RU)” value ([3]; SM374 0.5 mg/kg once per day) was 216.2 ± 30.0 RU, the “Anti-CCP IgG (RU)” value ([3]; SM374 1 mg/kg once per day) was 221.8 ± 28.0 RU and the “Anti-CCP IgG (RU)” value ([3]; SM374 10 mg/kg once per day) was 206.6 ± 32.9 RU.

In the case of `O=C(NO)c1ccc(CN(C(=O)N2CCCOCC2)c2cccc(F)c2)cc1` [SM652, N-(3-fluorophenyl)-N-(4-(hydroxycarbamoyl)benzyl)-1,4-oxazepane-4-carboxamide], the “Body weight (g) 8th day” value [1] is reported as 152.8 ± 2.4 g, the “Body weight (g) 11th day” value [1] is reported as 157.6 ± 1.9 g and the “Body weight (g) 15th day” value [1] is reported as 158.8 ± 1.6 g. The “Body weight (g) 18th day” value [1] was 156.8 ± 3.9 g, the “Rate of reduction in clinical scores (%)” value [2, 8] was 19.7% and the “Clinical score 11th day” value [2, 9] was 0.0 ± 0.0. The “Clinical score 15th day” value [2, 9] was 1.4 ± 0.9 and the “Clinical score 18th day” value [2, 9] was 4.9 ± 1.6.

For `O=C(NO)c1ccc(CN(C(=O)N2CCOCC2)c2ccc(F)cc2F)cc1` [SM413, N-(2,4-difluorophenyl)-N-(4-(hydroxycarbamoyl)benzyl)morpholine-4-carboxamide], the “Body weight (g) 8th day” value [1] was 151.3 ± 2.9 g, the “Body weight (g) 11th day” value [1] was 151.4 ± 3.9 g and the “Body weight (g) 15th day” value [1] was 157.4 ± 4.2 g. For the same compound, the “Body weight (g) 18th day” value [1] was 155.2 ± 4.5 g, the “Rate of reduction in clinical scores (%)” value [2, 8] was −3.3% and the “Clinical score 11th day” value [2, 9] was 0.0 ± 0.0. For the same compound, the “Clinical score 15th day” value [2, 9] was 3.0 ± 1.4 and the “Clinical score 18th day” value [2, 9] was 6.3 ± 1.4.

Source: patent publication US20220296599A1, “Pharmaceutical composition comprising histone deacetylase inhibitor and methotrexate” (Chong Kun Dang Pharmaceutical Corp., priority 2018, published 2022)
